Source: the NIST ThermoML archive (doi:10.1016/j.tca.2012.06.011)

Assay: xn = mol fraction of the nth substance listed
Conditions: 101 kPa, Liquid; for viscosity: Capillary tube (Ostwald / Ubbelohde) method; for mass density: Vibrating tube method

CN1CCNCC1 [N-methylpiperazine] + C1C[C@@H]2[C@H]3CC[C@H](C3)[C@@H]2C1
Conditions | mass density, 298.15 K [kg/m3] | mass density, 303.15 K [kg/m3] | mass density, 308.15 K [kg/m3] | mass density, 313.15 K [kg/m3] | mass density, 323.15 K [kg/m3] | viscosity, 298.15 K [mPa·s] | viscosity, 303.15 K [mPa·s] | viscosity, 308.15 K [mPa·s] | viscosity, 313.15 K [mPa·s] | viscosity, 323.15 K [mPa·s]
x1 = 0.1337 | 925.63 | 921.65 | 917.65 | 913.66 | 905.68 | 2.432 | 2.214 | 2.021 | 1.844 | 1.574
x1 = 0.2543 | 920.97 | 916.91 | 912.83 | 908.76 | 900.62 | 2.247 | 2.051 | 1.868 | 1.694 | 1.452
x1 = 0.3678 | 916.92 | 912.79 | 908.63 | 904.48 | 896.19 | 2.125 | 1.925 | 1.752 | 1.583 | 1.351
x1 = 0.4768 | 913.25 | 909.05 | 904.83 | 900.62 | 892.2 | 2.016 | 1.822 | 1.655 | 1.492 | 1.281
x1 = 0.577 | 910.05 | 905.8 | 901.53 | 897.26 | 888.74 | 1.943 | 1.756 | 1.583 | 1.435 | 1.237
x1 = 0.672 | 907.32 | 903.04 | 898.72 | 894.4 | 885.79 | 1.921 | 1.708 | 1.545 | 1.399 | 1.195
x1 = 0.76 | 904.59 | 900.27 | 895.93 | 891.58 | 882.9 | 1.893 | 1.681 | 1.512 | 1.362 | 1.162
x1 = 0.8407 | 902.15 | 897.92 | 893.59 | 889.24 | 880.55 | 1.894 | 1.656 | 1.502 | 1.35 | 1.154
x1 = 0.9242 | 900.27 | 895.92 | 891.51 | 887.11 | 878.34 | 1.877 | 1.632 | 1.467 | 1.318 | 1.116
x1 = 1 | 899.28 | 894.9 | 890.5 | 886.07 | 877.28 | 1.854 | 1.583 | 1.409 | 1.258 | 1.064
